Tested on: human Peripheral Blood Mononuclear Cell (PMBC)
Assay: PBMC assay: cytokine (IFN-alpha) stimulation at 24 hours
Type: cell-based
Conditions: minimum concentration for induction of IFN-alpha = 3-fold over background
Protocol: Assays were conducted to determine cytokine stimulation at 24 hours from human Peripheral Blood Mononuclear Cell (PMBC) using the compounds of the present invention. The assays were run in duplicate, with 8-point, half-log dilution curves. The compounds of the present invention were diluted from 10 mM DMSO solution. Cell supernatants are assayed directly for IFNa and 1:10 dilution for TNFa. The assays were performed in a similar fashion as described in Bioorg. Med. Chem. Lett. 16, 4559, (2006). Specifically, cryo-preserved PBMCs were thawed and seeded 96 well plates with 750,000 cells/well in 190 μL/well cell media. The PBMCs were then incubated for 1 hour at 37° C. at […]. Then, the compounds of the present invention were added in 10 μL cell media at 8 point, half-log dilution titration. The plates were incubated at 37° C. and 5% CO2 for 24 hours and then spinned at 1200 rpm for 10 min, which was followed by collecting supernatant and storing the same at −80° C. Cytokine secretion was assayed with Luminex and Upstate multi-plex kits, using a Luminex analysis instrument. IFN MEC value for a compound was the minimum concentration at which IFN-a production stimulated by the compound reached three fold above background, as determined using the assay method above.

| Structure (SMILES) | MEC | minimal effective concentration (read-out: MEC) [µM] |
| --- | --- | --- |
| CCCCOc1nc(N)c2[nH]c(=O)n(Cc3cccc(-c4ccccc4CN4CCCC4)c3)c2n1 [A] | d (d: 100 nM-1000 nM) |  |
| COCCOc1cc2c([nH]c(=O)n2Cc2ccc(-c3ccc(CN4CCCC4)cc3)cc2)c(N)n1 [AX] |  | 0.001 to 0.009 |
